Values of other authors in PMC9851200, “Multiparameter phenotypic screening for endogenous TFEB and TFE3 translocation identifies novel chemical series modulating lysosome function” (Autophagy, 2022).

How the values were obtained:
[1] = target: T1, kinases (KINOMEscan panel) (Homo sapiens, UniProt P30530); set-up: method as in original PKIS2 published data; settings: AXL; Published KINOMEscan; ref original PKIS2 published data; cited from earlier work
T1 sequence (P30530 26-894): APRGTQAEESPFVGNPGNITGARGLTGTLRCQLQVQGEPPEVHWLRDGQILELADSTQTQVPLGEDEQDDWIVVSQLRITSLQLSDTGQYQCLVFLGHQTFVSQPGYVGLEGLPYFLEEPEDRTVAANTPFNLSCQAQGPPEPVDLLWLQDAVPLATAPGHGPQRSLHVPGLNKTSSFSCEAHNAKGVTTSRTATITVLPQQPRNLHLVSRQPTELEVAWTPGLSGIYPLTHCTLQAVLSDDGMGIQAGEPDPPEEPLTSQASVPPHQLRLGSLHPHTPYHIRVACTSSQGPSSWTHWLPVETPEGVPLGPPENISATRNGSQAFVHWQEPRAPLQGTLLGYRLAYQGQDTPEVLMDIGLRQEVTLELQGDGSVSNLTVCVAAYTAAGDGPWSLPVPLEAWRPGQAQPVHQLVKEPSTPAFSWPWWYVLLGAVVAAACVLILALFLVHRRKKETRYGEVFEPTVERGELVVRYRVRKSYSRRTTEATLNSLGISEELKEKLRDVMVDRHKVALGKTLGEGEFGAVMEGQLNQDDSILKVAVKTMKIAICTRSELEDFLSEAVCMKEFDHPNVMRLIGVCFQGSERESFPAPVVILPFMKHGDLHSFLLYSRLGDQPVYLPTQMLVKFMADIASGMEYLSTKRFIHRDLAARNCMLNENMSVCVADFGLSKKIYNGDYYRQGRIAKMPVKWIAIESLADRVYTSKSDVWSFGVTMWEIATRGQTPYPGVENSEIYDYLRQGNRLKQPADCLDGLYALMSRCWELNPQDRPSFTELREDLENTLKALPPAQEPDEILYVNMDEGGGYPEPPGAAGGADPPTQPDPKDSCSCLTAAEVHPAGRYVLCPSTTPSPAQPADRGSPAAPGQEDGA

[2] = target: T2, kinases (KINOMEscan panel) (Homo sapiens, UniProt O95835); set-up: method as in original PKIS2 published data; settings: LATS1; Published KINOMEscan; ref original PKIS2 published data; cited from earlier work
T2 sequence (O95835 1-1130): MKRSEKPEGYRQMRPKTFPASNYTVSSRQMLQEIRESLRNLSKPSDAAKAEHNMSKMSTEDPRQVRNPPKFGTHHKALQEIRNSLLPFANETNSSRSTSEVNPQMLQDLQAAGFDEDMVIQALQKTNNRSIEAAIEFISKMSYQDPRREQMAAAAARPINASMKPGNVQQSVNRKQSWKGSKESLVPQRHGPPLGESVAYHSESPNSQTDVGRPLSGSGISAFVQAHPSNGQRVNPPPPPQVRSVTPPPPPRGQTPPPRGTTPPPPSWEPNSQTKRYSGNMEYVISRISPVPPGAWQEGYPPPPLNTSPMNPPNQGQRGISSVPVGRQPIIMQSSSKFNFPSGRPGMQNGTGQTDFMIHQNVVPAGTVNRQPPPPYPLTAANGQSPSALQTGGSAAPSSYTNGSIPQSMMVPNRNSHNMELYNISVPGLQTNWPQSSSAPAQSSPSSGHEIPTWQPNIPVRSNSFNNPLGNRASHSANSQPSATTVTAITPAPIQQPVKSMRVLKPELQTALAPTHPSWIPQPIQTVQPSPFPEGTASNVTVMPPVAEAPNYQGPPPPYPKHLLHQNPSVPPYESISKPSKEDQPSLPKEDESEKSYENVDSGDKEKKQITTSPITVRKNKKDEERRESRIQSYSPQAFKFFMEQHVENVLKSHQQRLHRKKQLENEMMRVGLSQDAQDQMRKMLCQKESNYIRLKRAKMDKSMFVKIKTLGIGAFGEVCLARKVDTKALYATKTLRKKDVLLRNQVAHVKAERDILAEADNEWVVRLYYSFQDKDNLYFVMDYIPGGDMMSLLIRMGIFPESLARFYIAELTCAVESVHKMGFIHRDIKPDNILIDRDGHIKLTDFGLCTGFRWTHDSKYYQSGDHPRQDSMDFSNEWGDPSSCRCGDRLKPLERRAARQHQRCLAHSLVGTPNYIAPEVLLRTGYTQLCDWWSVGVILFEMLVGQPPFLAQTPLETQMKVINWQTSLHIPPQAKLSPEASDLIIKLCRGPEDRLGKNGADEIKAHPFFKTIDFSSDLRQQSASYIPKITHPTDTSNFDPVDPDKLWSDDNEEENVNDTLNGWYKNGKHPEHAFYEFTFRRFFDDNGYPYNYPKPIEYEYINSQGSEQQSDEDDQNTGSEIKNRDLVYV

For `Cc1cccc(-c2nc(Nc3ccncc3)c3ccccc3n2)n1` [NK215], the “KINOMEscan AXL” value [1] is listed as 7 and the “KINOMEscan LATS1” value [2] is listed as 3.
